In patent US6737407B1, “Treatment of obesity” (Metabolic Pharmaceuticals, Ltd., priority 1997, dated 2004):
Where no end group is shown, it is not given here.

Tests used:
acetyl-CoA carboxylase = assay: Acetyl-CoA carboxylase assay in isolated adipocytes and hepatocytes; type: cell-based, rat
Procedure: Acetyl-CoA carboxylase catalyzes the critical step in fatty acid synthesis. The acetyl-CoA carboxylase activities of both isolated adipocytes and hepatocytes in the presence of hGH 177-191 peptide or analogues were measured for the evaluation of the anti-lipogenic effect of the peptides. The acetyl-CoA carboxylase activity was determined by the [C^14]-bicarbonate fixation reaction—the rate of incorporation of acetyl-CoA dependent H[C^14]O3 into [C^14]-malonyl-CoA.
Adipocytes were prepared with the method described in the HSL assay. Hepatocytes were prepared from the livers of male Wistar rats by collagenase digestion. The liver was finely-cut with scissors and transferred to a 250 ml Erlenmeyer flask containing 30 ml of digestion medium. The digestion medium contained microbial collagenase (Type IV) at a concentration of 30 mg/ml in calcium-free Krebs-Ringer phosphate buffer (pH 7.4) and glucose (5 mM). […]
The isolated cells were first preincubated at 37° C. for 30 minutes in a mixture containing 50 mM Tris-HCl buffer (pH 7.5), 10 mM potassium citrate, 10 mM MgCl2, 1 mM dithiothreitol (DTT), and BSA (0.8 mg/ml). […] The [C^14] radioactivity was measured with a liquid scintillation counter. […] Specific activity of the enzyme was expressed as mU/g cell dry weight, where 1 U of acetyl-CoA carboxylase was defined as that amount which catalyzed the carboxylation of 1 μmole acetyl-CoA per minute.

[1] = system: isolated adipose tissues of C57BL/6J (ob/ob) mice; assay: Oxidation of free fatty acid in isolated adipose tissues; type: cell-based, mouse; conditions: adipose tissues isolated from obese animals, FIG. 7
Procedure: FIG. 7 illustrates the in vitro effect of hGH 177-191 on fatty acid oxidation in isolated adipose tissues of C57BL/6J (ob/ob) mice with the determination of the rate of [C^14]O2 production from [C^14]-palmitic acid. The rate of [C^14]-palmitic acid oxidation was expressed as μmol/g tissue/hr.
The effect of hGH 177-191 or analogues on the free fatty acid (FFA) oxidation in the adipose tissues is evaluated by the measure of converted [C^14]O2 from C^14-palmitic acid. The [C^14]O2 a final product of FFA oxidation, was trapped by hyamine hydroxide and measured by liquid scintillation counter. The rate of FFA oxidation was then determined by [C^14] radioactivity.
Adipose tissues removed from laboratory animals were sliced into segments of approximately 200 mg each. The tissues in 25 ml vials containing 2 ml of Krebs-Ringer phosphate (KRP) buffer, and 2% defatted bovine serum albumin (BSA) were pre-incubated at 37° C. for 30 minutes under an atmosphere of carbogen (95%O2/5%CO2) Then the tissues were transferred to Konte flasks with fresh incubation medium with 0.15 mM sodium [C^14]-palmitate (final [C^14]-specific activity, 0.20 μCi/μmol) and hGH 177-191 peptide or analogues (1-1000 nM). […] The [C^14] radioactivity was measured with a liquid scintillation counter. The rate of [C^14]-palmitic acid oxidation to [C^14]O2 was calculated and expressed as μmol/g tissue/hr.

effect on acetyl CoA carboxylase (in words) (acetyl-CoA carboxylase): inhibiting
Sequence: LRIVQCRSVEGSCGF (cysteine pairing not given here) [Ref No. 9401]
oxidation of fatty acids (in words) [1]: enhanced
